The text below walks through data of publication PMC9380258, “Primary and secondary functions of HLA-E are determined by stability and conformation of the peptide-bound complexes” (Cell Reports, 2022).

For experiment [1], the system named is HLA-E. Also noted: method as in Walters et al. 2020. The following applies: sandwich ELISA (3D12 anti-HLA-E capture, anti-β2M detection) after peptide exchange; normalised signal as percentage of positive control VL9 signal; previously published; ref Walters et al. 2020; cited from earlier work. In general terms: In an ELISA, binding on a coated surface is turned into a signal by an enzyme label.

Experiment [2] relates to HLA-E. The experiment is classed as binding, human. The following applies: for Tm (°C) 12M, HLA-E-β2M-peptide complex thermal stability: pH 8.
The target in experiment [3] is HLA-E*01:03 (Homo sapiens, UniProt P13747). In words: SEC-SAXS of peptide-refolded HLA-E*01:03 complexes. (In general: In gel filtration, larger molecules generally elute earlier.)

Where two headings read alike, the source gives them in different places. Bounds are passed on as bounds.

Consider EIEVDDDLIQK [EK11], for which the “ELISA Rank (%VL9 binding)” value in experiment [1] is listed as “minimal binding”.

For the sequence EKQRESREK [EK9], the “ELISA Rank (%VL9 binding)” value in experiment [1] is under 10%.

As for “QAISPRTLN [Neg Ctrl pep, reference compound]”, the “Tm (°C) 12M, HLA-E-β2M-peptide complex thermal stability” value (shortened to “Tm (°C) 12M”) in experiment [2] was 31.8 °C. In experiment [1], the “ELISA Rank (%VL9 binding)” value is listed as 0.3%.

Regarding RLPAKAPLL [Mtb44], the “Tm (°C) 12M” value in experiment [2] stood at 50.6 °C. Further, the “ELISA Rank (%VL9 binding)” value in experiment [1] was 97%.

Consider RMAATAQVL [Mtb14], for which the “Tm (°C) 12M” value in experiment [2] worked out at 37.8 °C. Further, the “ELISA Rank (%VL9 binding)” value in experiment [1] is recorded as 48%. Also, the “Molecular envelope Vol %change” value in experiment [3] is recorded as −32%.

Take RMYNPTNIL [RL9SIV]: the “Tm (°C) 12M” value in experiment [2] worked out at 35.2 °C. Besides, the “ELISA Rank (%VL9 binding)” value in experiment [1] was 22%. For the same sequence, in experiment [3], the “Molecular envelope Vol %change” value was −34%.

In the case of RMYSPTSIL [RL9HIV], the “Tm (°C) 12M” value in experiment [2] turned out to be 38.2 °C. In addition, the “ELISA Rank (%VL9 binding)” value in experiment [1] is listed as 43%. In addition, in experiment [3] (% change in model volume following 120 μM excess peptide addition), the “Molecular envelope Vol %change” value is reported as −42%.

As to SQAPLPCVL [BZLF1], the “Tm (°C) 12M” value in experiment [2] amounted to 37.7 °C. Besides, in experiment [1], the “ELISA Rank (%VL9 binding)” value is given as 41%. For the same sequence, in experiment [3], the “Dmax (Å), maximum dimension” value was determined as 108 Å and the “Molecular envelope Vol (Å3)” value is listed as 107,950 Å3.

For the sequence VMAPRTQLL [VL9 P7Q], the “drop in thermal stability” value in experiment [2] turned out to be 6.6 °C.

In the case of VMAPRTVLL [VL9, reference compound], in experiment [2], the “Tm (°C) 12M” value is 49.4 °C. Also, the “ELISA Rank (%VL9 binding)” value in experiment [1] is listed as 100%.
